Data on 25 molecules can be found in patent publication US10988477B2 (Merck Patent GmbH, priority 2018, dated 2021).

The assay deals with GCN2 kinase (Homo sapiens, UniProt Q9P2K8). As to the kind of experiment: GCN2 enzyme inhibition assay (Transcreener ADP2 fluorescence polarization). The format is biochemical. To be noted: 280 μM ATP, 4 nM GCN2 kinase. In short, it runs like this:
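Inhibition of 4 nM GCN2 was measured with compound up to 8 μM final, ATP 280 μM and (RS)7 peptide 200 μM over a 1 h, 25 °C reaction. ADP FP readout; IC50 and Ki(app) calculated from percent inhibition.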
(In general: In fluorescence polarisation assays a small probe gives low polarisation when free and higher when bound to something large.)

Sequence of GCN2 kinase (Q9P2K8 whole entry): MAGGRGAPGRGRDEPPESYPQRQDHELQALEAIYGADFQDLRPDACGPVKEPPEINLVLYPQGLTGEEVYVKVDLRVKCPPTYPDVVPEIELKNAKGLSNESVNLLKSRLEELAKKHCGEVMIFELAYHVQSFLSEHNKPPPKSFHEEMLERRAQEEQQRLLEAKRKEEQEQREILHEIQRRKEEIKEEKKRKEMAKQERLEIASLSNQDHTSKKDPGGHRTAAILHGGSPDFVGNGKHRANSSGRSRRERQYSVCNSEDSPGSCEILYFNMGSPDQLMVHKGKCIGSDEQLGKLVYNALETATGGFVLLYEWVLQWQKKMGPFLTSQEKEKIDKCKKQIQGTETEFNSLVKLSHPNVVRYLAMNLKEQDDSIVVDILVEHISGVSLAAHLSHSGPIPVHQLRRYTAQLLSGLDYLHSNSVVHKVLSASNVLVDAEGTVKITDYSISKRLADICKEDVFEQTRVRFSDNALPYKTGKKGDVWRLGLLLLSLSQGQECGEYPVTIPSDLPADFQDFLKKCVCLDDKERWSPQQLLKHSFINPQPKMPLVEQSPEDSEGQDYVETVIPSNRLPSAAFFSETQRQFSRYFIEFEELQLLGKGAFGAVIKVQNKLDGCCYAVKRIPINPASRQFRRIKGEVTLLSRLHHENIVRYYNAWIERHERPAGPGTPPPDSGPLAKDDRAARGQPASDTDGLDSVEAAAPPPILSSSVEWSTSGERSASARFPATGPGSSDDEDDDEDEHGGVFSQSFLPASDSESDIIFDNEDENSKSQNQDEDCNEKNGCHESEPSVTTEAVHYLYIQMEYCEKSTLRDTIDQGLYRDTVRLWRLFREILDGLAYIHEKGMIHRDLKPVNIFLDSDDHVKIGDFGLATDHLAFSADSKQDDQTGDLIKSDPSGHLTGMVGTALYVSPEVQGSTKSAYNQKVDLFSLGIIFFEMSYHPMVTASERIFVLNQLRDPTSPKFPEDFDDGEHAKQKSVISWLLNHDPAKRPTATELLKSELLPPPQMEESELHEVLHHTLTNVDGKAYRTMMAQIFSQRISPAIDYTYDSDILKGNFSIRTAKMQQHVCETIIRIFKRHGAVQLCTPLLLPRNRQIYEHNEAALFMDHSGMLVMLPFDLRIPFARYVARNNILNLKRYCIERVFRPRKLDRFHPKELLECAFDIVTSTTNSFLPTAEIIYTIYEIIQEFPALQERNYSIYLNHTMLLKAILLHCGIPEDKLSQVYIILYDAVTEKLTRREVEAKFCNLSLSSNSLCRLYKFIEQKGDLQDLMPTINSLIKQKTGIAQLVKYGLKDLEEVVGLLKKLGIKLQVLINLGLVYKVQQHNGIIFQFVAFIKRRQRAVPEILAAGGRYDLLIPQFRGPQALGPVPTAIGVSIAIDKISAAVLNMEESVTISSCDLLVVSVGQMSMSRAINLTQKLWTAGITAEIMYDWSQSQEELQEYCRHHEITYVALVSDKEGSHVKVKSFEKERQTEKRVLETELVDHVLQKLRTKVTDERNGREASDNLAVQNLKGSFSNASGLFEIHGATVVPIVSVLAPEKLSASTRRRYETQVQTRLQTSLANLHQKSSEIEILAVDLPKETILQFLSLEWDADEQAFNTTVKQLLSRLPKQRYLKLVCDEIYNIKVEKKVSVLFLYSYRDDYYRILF

`Cc1n[nH]cc1[C@H]1CN(c2ccnc(-c3cnc4cnc(C(F)(F)F)cn34)n2)C[C@@H](C)O1` (stereo in doubt) [IV-762, (2R,6S)-2-methyl-6-(3-methyl-1H-pyrazol-4-yl)-4-(2-(6-(trifluoromethyl)imidazo[1,2-a]pyrazin-3-yl)pyrimidin-4-yl)morpholine] gave an IC50 (compounds of Formula IV) of 10 to 1000 nM. In turn, `O=C1CCN(c2ccnc(-c3cnc4sc(C(F)(F)F)cn34)n2)CCN1` [Compound V-8, 1-[2-[2-(Trifluoromethyl)imidazo[2,1-b]thiazol-5-yl]pyrimidin-4-yl]-1,4-diazepan-5-one] registered a Ki (compounds of Formula V) of 100 to 1000 nM. With `CS(C)(=O)=NC1CCCN(c2ccnc(-c3cnc4sc(C(F)(F)F)cn34)n2)C1` (stereo not shown) [Compound V-9, Dimethyl((1-(2-(2-(trifluoromethyl)imidazo[2,1-b]thiazol-5-yl)pyrimidin-4-yl)piperidin-3-yl)imino)-λ^6-sulfanone], the inhibition constant (Ki) (compounds of Formula V) was 100 to 1000 nM. For `CS(=N)(=O)NC[C@@H]1CN(c2cc(-c3cnc4ccc(C(F)F)nn34)ncn2)CCO1` (stereo partly drawn) [II-23, N—(((S)-4-(6-(6-(Difluoromethyl)imidazo[1,2-b]pyridazin-3-yl)pyrimidin-4-yl)morpholin-2-yl)methyl)methanesulfonimidamide], the Ki (compounds of Formula II) was in the range of 10 to 1000 nM. On the same count and under the same terms, under `CC1C(CO)N(C(C)(C)C)CCN1c1cc(-c2cnc3ccc(C(F)F)nn23)ncn1` (stereo not shown) [II-43, (1-(tert-Butyl)-4-(6-(6-(difluoromethyl)imidazo[1,2-b]pyridazin-3-yl)pyrimidin-4-yl)-3-methylpiperazin-2-yl)methanol] stands over 1000 nM. Same read-out and setting: under `CS(=O)(=O)NCC1CCCN(c2cc(-c3cnc4ccc(C(F)F)nn34)cc(NCCO)n2)C1` (stereo not shown) [II-91, N-((1-(4-(6-(Difluoromethyl)imidazo[1,2-b]pyridazin-3-yl)-6-((2-hydroxyethyl)amino)pyridin-2-yl)piperidin-3-yl)methyl)methanesulfonamide] stands under 10 nM. The same measure, in the same setting: in the case of `FC(F)c1ccc2ncc(-c3ccnc(N4C[C@@H]5C[C@H]4CN5)c3)n2n1` [II-165, 3-(2-((1S,4S)-2,5-Diazabicyclo[2.2.1]heptan-2-yl)pyridin-4-yl)-6-(difluoromethyl)imidazo[1,2-b]pyridazine] it was 10 to 1000 nM; in that of `Clc1ccc2ncc(-c3ccnc(N4CCNCC4)c3)n2n1` [II-220, 6-Chloro-3-(2-(piperazin-1-yl)pyridin-4-yl)imidazo[1,2-b]pyridazine], over 1000 nM; in that of `CNS(=O)(=O)CC1CCCN(c2cc(-c3cnc4ccc(C(F)F)nn34)ncn2)C1` (stereo not shown) [II-236, 1-(1-(6-(6-(Difluoromethyl)imidazo[1,2-b]pyridazin-3-yl)pyrimidin-4-yl)piperidin-3-yl)-N-methylmethanesulfonamide], 10 to 1000 nM. `CCC1COC(CNS(C)(=O)=O)CN1c1cc(-c2cnc3ccc(C(F)F)nn23)ncn1` (stereo not shown) [II-269, N-((4-(6-(6-(Difluoromethyl)imidazo[1,2-b]pyridazin-3-yl)pyrimidin-4-yl)-5-ethylmorpholin-2-yl)methyl)methanesulfonamide] registered an inhibition constant (Ki) (compounds of Formula II) of 10 to 1000 nM. On to `CN1CCN(c2cc(-c3cnc4ccc(C(F)F)nn34)ncn2)CC1CS(N)(=O)=O` (stereo not shown) [II-464, (4-(6-(6-(Difluoromethyl)imidazo[1,2-b]pyridazin-3-yl)pyrimidin-4-yl)-1-methylpiperazin-2-yl)methanesulfonamide], for which the inhibitory constant (Ki) (compounds of Formula II) lay in the range of 10 to 1000 nM. Where the note is “compounds of Formula II”, `COCCN1CCN(c2cc(-c3cnc4ccc(C(F)F)nn34)ncn2)C(C)C1CNS(C)(=O)=O` (stereo not shown) [II-494, N-((4-(6-(6-(Difluoromethyl)imidazo[1,2-b]pyridazin-3-yl)pyrimidin-4-yl)-1-(2-methoxyethyl)-3-methylpiperazin-2-yl)methyl)methanesulfonamide] registered an inhibitory constant (Ki) of under 10 nM.

For the setting “compounds of Formula II”, `N#CCC1CCCN(c2cc(-c3cnc4ccc(C(F)(F)F)nn34)ncn2)C1` (stereo not shown) [II-501, 2-(1-(6-(6-(Trifluoromethyl)imidazo[1,2-b]pyridazin-3-yl)pyrimidin-4-yl)piperidin-3-yl)acetonitrile] showed a Ki of 10 to 1000 nM.

As to `CC1C(CNS(C)(=O)=O)N(C(C)C)CCN1c1cc(-c2cnc3ccc(C(F)F)nn23)ncn1` (stereo not shown) [II-507, N-((4-(6-(6-(Difluoromethyl)imidazo[1,2-b]pyridazin-3-yl)pyrimidin-4-yl)-1-isopropyl-3-methylpiperazin-2-yl)methyl)methanesulfonamide], where the note is “compounds of Formula II”, the Ki is under 10 nM. Consider `O=C(O)[C@@H]1CCCN(c2cc(-c3cnc4ccc(C(F)F)nn34)ncn2)C1` [II-508, (R)-1-(6-(6-(Difluoromethyl)imidazo[1,2-b]pyridazin-3-yl)pyrimidin-4-yl)piperidine-3-carboxylic acid], for which the inhibition constant (Ki) (compounds of Formula II) fell in the range of 10 to 1000 nM. Same read-out and setting: in the case of `N#CCC1CN(c2cc(-c3cnc4ccc(C(F)F)nn34)ncn2)CCO1` (stereo not shown) [II-512, 2-(4-(6-(6-(Difluoromethyl)imidazo[1,2-b]pyridazin-3-yl)pyrimidin-4-yl)morpholin-2-yl)acetonitrile] it was 10 to 1000 nM. `N#CCC1CN(c2cc(-c3cnc4ccc(C(F)(F)F)nn34)ncn2)CCO1` (stereo not shown) [II-513, 2-(4-(6-(6-(Trifluoromethyl)imidazo[1,2-b]pyridazin-3-yl)pyrimidin-4-yl)morpholin-2-yl)acetonitrile] displayed a Ki (compounds of Formula II) of 10 to 1000 nM.

`CN1CCN(c2cc(-c3cnc4ccc(C(F)F)nn34)ncn2)CC1CCO` (stereo not shown) [II-514, 2-(4-(6-(6-(Difluoromethyl)imidazo[1,2-b]pyridazin-3-yl)pyrimidin-4-yl)-1-methylpiperazin-2-yl)ethan-1-ol] returned a Ki (compounds of Formula II) of 10 to 1000 nM. With `CC(=O)N1CCN(c2cc(-c3cnc4ccc(C(F)F)nn34)ncn2)C(C)C1CNS(C)(=O)=O` (stereo not shown) [II-515, N-((1-Acetyl-4-(6-(6-(difluoromethyl)imidazo[1,2-b]pyridazin-3-yl)pyrimidin-4-yl)-3-methylpiperazin-2-yl)methyl)methanesulfonamide], the inhibition constant (Ki) (compounds of Formula II) was under 10 nM. Same read-out and setting: in the case of `OC[C@@H]1CCCN(c2cc(-c3cnc4ccc(C(F)(F)F)nn34)ncn2)C1` [II-517, (R)-(1-(6-(6-(Trifluoromethyl)imidazo[1,2-b]pyridazin-3-yl)pyrimidin-4-yl)piperidin-3-yl)methanol] it was 10 to 1000 nM; in that of `[2H]C([2H])(NS(C)(=O)=O)C1CCCN(c2cc(-c3cnc4ccc(C(F)F)nn34)ncn2)C1` (stereo not shown) [II-524, N-((1-(6-(6-(Difluoromethyl)imidazo[1,2-b]pyridazin-3-yl)pyrimidin-4-yl)piperidin-3-yl)methyl-d2)methanesulfonamide], under 10 nM. On the same count and under the same terms, under `N#CC1CN(c2cc(-c3cnc4ccc(C(F)F)nn34)ncn2)CCO1` (stereo not shown) [II-531, 4-(6-(6-(Difluoromethyl)imidazo[1,2-b]pyridazin-3-yl)pyrimidin-4-yl)morpholine-2-carbonitrile] stands 10 to 1000 nM; under `N#CC1CCCN(c2cc(-c3cnc4ccc(C(F)F)nn34)ncn2)C1` (stereo not shown) [II-532, 1-(6-(6-(Difluoromethyl)imidazo[1,2-b]pyridazin-3-yl)pyrimidin-4-yl)piperidine-3-carbonitrile], 10 to 1000 nM. For the setting “compounds of Formula II”, `N#CC1CN(c2cc(-c3cnc4ccc(C(F)(F)F)nn34)ncn2)CCO1` (stereo not shown) [II-533, 4-(6-(6-(Trifluoromethyl)imidazo[1,2-b]pyridazin-3-yl)pyrimidin-4-yl)morpholine-2-carbonitrile] gave a Ki of 10 to 1000 nM. On the same count and under the same terms, in the case of `N#CC1CCCN(c2cc(-c3cnc4ccc(C(F)(F)F)nn34)ncn2)C1` (stereo not shown) [II-534, 1-(6-(6-(Trifluoromethyl)imidazo[1,2-b]pyridazin-3-yl)pyrimidin-4-yl)piperidine-3-carbonitrile] it was 10 to 1000 nM.

Usually IC50 stands for the concentration needed to halve the response being measured. Low values mean greater potency, high ones weaker potency. The Ki is the equilibrium dissociation constant of an inhibitor or competing ligand from its target. A low value points to a stronger hold on the target.
